Laboratory results reported in patent publication US8513423B2 (Janssen Pharmaceutica, NV, priority 2010, dated 2013).
Numbering of substitutions follows the chain as printed. Where two headings read alike, the source gives them in different places.

How the values were obtained:
[1] = biological target: T1, purified wild type MGL (wt-MGLL 6H-11-313) (Homo sapiens, UniProt Q99685); assay: MGL enzyme activity assay (4MU-B cleavage), wild type MGL; type: biochemical; conditions: 10 μM 4MU-B, 5 nM enzyme, 37° C., read-out: MGL wild type inh IC50
T1 construct: purified wild type MGL (wt-MGLL 6H-11-313)
T1 sequence (Q99685 1-303): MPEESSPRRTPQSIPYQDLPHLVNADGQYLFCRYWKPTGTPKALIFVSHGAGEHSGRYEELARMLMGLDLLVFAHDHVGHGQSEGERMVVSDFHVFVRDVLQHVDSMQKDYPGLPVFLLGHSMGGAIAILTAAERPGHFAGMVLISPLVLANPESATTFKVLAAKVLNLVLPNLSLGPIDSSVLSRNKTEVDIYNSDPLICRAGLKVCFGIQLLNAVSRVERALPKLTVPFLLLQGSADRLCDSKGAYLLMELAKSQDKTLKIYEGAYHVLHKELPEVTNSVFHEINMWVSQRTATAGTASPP
Experimental: All rate-based assays were performed in black 384-well polypropylene PCR microplates (Abgene) in a total volume of 30 μL. Substrate 4-methylumbelliferyl butyrate (4MU-B; Sigma) and either purified mutant MGL (mut-MGLL 11-313 L179S L186S) or purified wild type MGL (wt-MGLL 6H-11-313) were diluted separately into 20 mM PIPES buffer (pH=7.0), containing 150 mM NaCl and 0.001% Tween 20. Compounds of Formula (I) were pre-dispensed (50 nL) into the assay plate using a Cartesian Hummingbird prior to adding 4MU-B (25 μL of 1.2× solution to a final concentration of 10 μM) followed by enzyme (5 μL of a 6× solution to a final concentration of 5 nM) to initiate the reaction. Final compound concentrations ranged from 17 to 0.0003 μM. The fluorescence change due to 4MU-B cleavage was monitored with excitation and emission wavelengths of 335 and 440 nm, respectively, and a bandwidth of 10 nm (Safire^2, Tecan) at 37° C. for 5 min.
The IC50 values for compounds of Formula (I) were determined using Excel from a fit of the equation to the concentration-response plot of the fractional activity as a function of inhibitor concentration.

mutant MGL = biological target: T2, mutant MGL (Homo sapiens, UniProt Q99685, L169S/L176S); assay: MGL ThermoFluor assay - mutant; type: binding
T2 construct: purified mutant MGL (mut-MGLL 11-313 L179S L186S)
T2 sequence (Q99685 1-303 L169S/L176S): T1 sequence (Q99685 1-303) with L169S, L176S
Experimental: The ThermoFluor (TF) assay is a 384-well plate-based binding assay that measures thermal stability of proteins^1,2. The experiments were carried out using instruments available from Johnson & Johnson Pharmaceutical Research & Development, LLC. TF dye used in all experiments was 1,8-ANS (Invitrogen: A-47). Final TF assay conditions used for MGL studies were 0.07 mg/ml of mutant MGL, 100 μM ANS, 200 mM NaCl, 0.001% Tween-20 in 50 mM PIPES (pH=7.0).
Screening compound plates contained 100% DMSO compound solutions at a single concentration. For follow-up concentration-response studies, compounds were arranged in a pre-dispensed plate (Greiner Bio-one: 781280), wherein compounds were serially diluted in 100% DMSO across 11 columns within a series. Columns 12 and 24 were used as DMSO reference and contained no compound. For both single and multiple compound concentration-repsonse experiments, the compound aliquots (46 nL) were robotically predispensed directly into 384-well black assay plates (Abgene: TF-0384/k) using the Hummingbird liquid handler. Following compound dispension, protein and dye solutions were added to achieve the final assay volume of 3 μL. The assay solutions were overlayed with 1 μl of silicone oil (Fluka, type DC 200: 85411) to prevent evaporation.
Bar-coded assay plates were robotically loaded onto a thermostatically controlled PCR-type thermal block and then heated from 40 to 90° C. degrees at a ramp-rate of 1° C./min for all experiments. Fluorescence was measured by continuous illumination with UV light (Hamamatsu LC6), supplied via fiber optics and filtered through a band-pass filter (380-400 nm; >6 OD cutoff). Fluorescence emission of the entire 384-well plate was detected by measuring light intensity using a CCD camera (Sensys, Roper Scientific) filtered to detect 500±25 nm, resulting in simultaneous and independent readings of all 384 wells. A single image with 20-sec exposure time was collected at each temperature, and the sum of the pixel intensity in a given area of the assay plate was recorded vs temperature and fit to standard equations to yield the Tm^1. • 1. Pantoliano, M. W., Petrella, E. C., Kwasnoski, J. D., Lobanov, V. S., Myslik, J., Graf, E., Carver, T., Asel, E., Springer, B. A., Lane, P., and Salemme, F. R. (2001) J Biomol Screen 6, 429-40. • 2. Matulis, D., Kranz, J. K., Salemme, F. R., and Todd, M. J. (2005) Biochemistry 44, 5258-66.
The Kd values for compounds of Formula (I) were determined from a fit of the equation to the concentration-response plot of the fractional activity as a function of Tm. For some experiments, quantitative NMR spectroscopy (qNMR) was used to measure concentration of the initial 100% DMSO compound solutions and, using the same fitting method, qKd values were determined

MGL = biological target: T3, MGL (Rattus norvegicus, UniProt Q8R431); assay: 2-AG accumulation assay in rat brain homogenate; type: biochemical; conditions: compound @1 μM, read-out: Rat Brain 2AG % VehCntrl (%) @1 μM
T3 construct: one g rat brain was homogenized; from tissue; host or cells: rat brain homogenate
T3 sequence (Q8R431 1-303): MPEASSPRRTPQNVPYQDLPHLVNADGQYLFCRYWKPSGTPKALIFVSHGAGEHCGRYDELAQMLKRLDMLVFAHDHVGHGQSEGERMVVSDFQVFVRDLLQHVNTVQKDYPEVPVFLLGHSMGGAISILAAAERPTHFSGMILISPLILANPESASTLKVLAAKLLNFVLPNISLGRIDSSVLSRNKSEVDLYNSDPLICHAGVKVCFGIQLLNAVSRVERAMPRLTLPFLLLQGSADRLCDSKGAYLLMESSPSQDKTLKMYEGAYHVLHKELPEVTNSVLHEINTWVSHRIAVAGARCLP
Experimental: After a 15-min incubation time at 37° C., CaCl2 (final concentration=10 mM) was added and then incubated for 15 min at 37° C. in a total volume of 5 mL. The reactions were stopped with 6 mL organic solvent extraction solution of 2:1 chloroform/methanol. Accumulated 2-AG in the organic phase was measured by a HPLC/MS method, according to the following equation: percent vehicle=(2-AG accumulation in the presence of compound/2-AG accumulation in vehicle)×100.

[2] = compound concentration measured by qNMR, read-out: MGL mutant ThermoFluor qKd (using qNMR conc.)
[3] = 0.07 mg/ml mutant MGL, pH=7.0, read-out: MGL mutant ThermoFluor Kd

Structure (SMILES) | IC50 [1] [nM] | Kd (mutant MGL; [2]) [nM] | 2-AG accumulation, percent of vehicle control at 1 µM (MGL) [%] | Kd (mutant MGL; [3]) [nM]
O=C(c1ccc2c(ccn2-c2ccc(F)cc2)c1)N1CCC(C2CN(C(=O)c3nccs3)C2)CC1 [Cpd 72, 1-(4-Fluorophenyl)-5-({4-[1-(1,3-thiazol-2-ylcarbonyl)azetidin-3-yl]piperidin-1-yl}carbonyl)-1H-indole] | 17 | 2.7 | 657 | 
O=C(c1ccc[nH]1)N1CCC(C2CN(C(=O)c3sc4cc(C(F)(F)F)ccc4c3Cl)C2)CC1 [Cpd 41, 4-(1-{[3-Chloro-6-(trifluoromethyl)-1-benzothiophen-2-yl]carbonyl}azetidin-3-yl)-1-(1H-pyrrol-2-ylcarbonyl)piperidine] | < 5 | 3.1 | 272 | 4.1
O=C(c1ccc(-c2cccc(C(F)(F)F)c2)cc1)N1CCC(C2CN(C(=O)c3cscn3)C2)CC1 [Cpd 49, 4-[1-(1,3-Thiazol-4-ylcarbonyl)azetidin-3-yl]-1-{[3′-(trifluoromethyl)biphenyl-4-yl]carbonyl}piperidine] | 6 | 1 | 908 | 
O=C(c1ccc[nH]1)N1CCC(C2CN(C(=O)c3ccc(-c4ccccc4)cc3F)C2)CC1 [Cpd 21, 4-{1-[(3-Fluorobiphenyl-4-yl)carbonyl]azetidin-3-yl}-1-(1H-pyrrol-2-ylcarbonyl)piperidine] | 12.4 |  | 287 | 28.6
O=C(c1ccc2nc(-c3ccccc3)oc2c1)N1CC(C2CCN(C(=O)c3ccc[nH]3)CC2)C1 [Cpd 40, 2-Phenyl-6-({3-[1-(1H-pyrrol-2-ylcarbonyl)piperidin-4-yl]azetidin-1-yl}carbonyl)-1,3-benzoxazole] | 9 | 94.6 | 361 | 
O=C(c1ccc(Cc2ccc(C(F)(F)F)cc2)cc1)N1CCC(C2CN(C(=O)c3cscn3)C2)CC1 [Cpd 64, 4-[1-(1,3-Thiazol-4-ylcarbonyl)azetidin-3-yl]-1-({4-[4-(trifluoromethyl)benzyl]phenyl}carbonyl)piperidine] | < 5 | 18.9 | 383 | 
O=C(c1ccc2c(ccn2-c2ccc(F)cc2)c1)N1CC(C2CCN(C(=O)c3nccs3)CC2)C1 [Cpd 30, 1-(4-Fluorophenyl)-5-({3-[1-(1,3-thiazol-2-ylcarbonyl)piperidin-4-yl]azetidin-1-yl}carbonyl)-1H-indole] | < 5 |  | 443 | 2.5
O=C(c1cscn1)N1CCC(C2CN(C(=O)c3sc4cc(F)ccc4c3Cl)C2)CC1 [Cpd 7, 4-{1-[(3-Chloro-6-fluoro-1-benzothiophen-2-yl)carbonyl]azetidin-3-yl}-1-(1,3-thiazol-4-ylcarbonyl)piperidine] | 56.5 |  | 185 | 25
O=C(c1ccc(-c2ccc(C(F)(F)F)s2)cc1)N1CCC(C2CN(C(=O)c3ccc[nH]3)C2)CC1 [Cpd 56, 4-[1-(1H-Pyrrol-2-ylcarbonyl)azetidin-3-yl]-1-({4-[5-(trifluoromethyl)thiophen-2-yl]phenyl}carbonyl)piperidine] | < 5 | 3.3 | 285 | 5.5
O=C(c1cccc(-c2cccc(F)c2)c1)N1CC(C2CCN(C(=O)c3nccs3)CC2)C1 [Cpd 17, 4-{1-[(3′-Fluorobiphenyl-3-yl)carbonyl]azetidin-3-yl}-1-(1,3-thiazol-2-ylcarbonyl)piperidine] | 17.3 |  | 184 | 99
O=C(c1ccc2c(ccn2-c2ccc(F)cc2)c1)N1CCC(C2CN(C(=O)c3ccc[nH]3)C2)CC1 [Cpd 74, 1-(4-Fluorophenyl)-5-({4-[1-(1H-pyrrol-2-ylcarbonyl)azetidin-3-yl]piperidin-1-yl}carbonyl)-1H-indole] | 13.8 | 8 | 788 | 
O=C(c1cccc(-c2cccc(F)c2)c1)N1CCC(C2CN(C(=O)c3cscn3)C2)CC1 [Cpd 52, 1-[(3′-Fluorobiphenyl-3-yl)carbonyl]-4-[1-(1,3-thiazol-4-ylcarbonyl)azetidin-3-yl]piperidine] | 71.5 | 32.2 | 193 | 30.4
O=C(c1ccc(-c2ccc(C(F)(F)F)s2)cc1)N1CCC(C2CN(C(=O)c3cscn3)C2)CC1 [Cpd 55, 4-[1-(1,3-Thiazol-4-ylcarbonyl)azetidin-3-yl]-1-({4-[5-(trifluoromethyl)thiophen-2-yl]phenyl}carbonyl)piperidine] | 13 | 2 | 733 | 
O=C(c1ccc(Cc2ccc(C(F)(F)F)cc2)cc1)N1CC(C2CCN(C(=O)c3cscn3)CC2)C1 [Cpd 33, 1-(1,3-Thiazol-4-ylcarbonyl)-4-[1-({4-[4-(trifluoromethyl)benzyl]phenyl}carbonyl)azetidin-3-yl]piperidine] | < 5 |  | 696 | 62.6
